“And” between values parts separate entries of the source, which are not always exact repeats. Identical values can stand only once. Like-named read-outs stand apart in the source and are kept apart here.
Biological target: T1, SBC2 (Homo sapiens, UniProt O14508)
T1 construct: SOCS2 (amino acids 32–198); His6 (N, cleaved yes); made in house; host or cells: E. coli BL21(DE3)
Assay: Covalent fluorescence polarization (FP) probe displacement assay
Type: binding
Conditions: for kinact/KI: read-out: Slope: Kinact/Ki (converted); for Anisotropy based on Raw Data (485): Cycle 7 (30 min); for Fb, fraction bound: Cycle 2 (5 min); for Anisotropy data 485,520,520 / Normalised anisotropy (0 nM MN551 = 1, free probe = 0) / Anisotropy normalised (0 nM MN551 = 1, free probe = 0): n=1
From the text: With the specific covalent modification of Cys111 established, we decided to fully characterize MN551 as a covalent SOCS2 inhibitor. […] (Fig. 2g, h, Supplementary Fig. 9). Due to the covalent nature of the competing inhibitor, a time-dependent reduction in the fraction of protein-bound probe is observed. […] This value illustrates reasonable specificity for a covalent inhibitor, with nonetheless scope for future optimization. In addition to characterizing the kinetic covalency parameters, we have also assessed the stability of the MN551 by monitoring its reactivity (half-life >70 min) with reduced glutathione (GSH) (Supplementary Fig. 10)[35].
To monitor the SBC2-ligand binding kinetics we designed a fluorescein-labeled small-molecule probe - compound 26. The fluorescence polarization (anisotropy) of a threefold serial dilution of 50 µM SBC2 in 10 nM of the probe in 100 mM HEPES pH 7.5, 50 mM NaCl, 0.5 mM TCEP, 2% DMSO was measured to determine the KL (Supplementary Fig. 9A) (BMG Labtech PHERAstar – firmware v1.33). Protein titration and the curves were fitted using GraphPad Prism 9, using one-site fitting models to determine the probe binding constant, KL. Samples were run in triplicate in 384 well plates, using a total volume per well of 16 μL. The bound fraction of the probe is measure using the equation:1 Fb=Af−A/Af−Ab Where,
A time-dependent reduction in probe anisotropy were measured for a 2-fold serial dilution of […] compound MN551 in 10 nM probe +300 μM SBC2. To determine the initial reversible binding affinity, the initial bound fraction of the probe at time = 0, Fbo (the y-intercept in Fb v/s Time plot, Supplementary Fig. 9B) was plotted against MN551 concentration, and the obtained IC50 is then converted to Ki (Supplementary Fig. 9C)[17]. The slope from Fb versus time graph when divided by Fbo gives rate of covalency, kobs. A plot of kobs v/s MN551 concentration using Michaelis–Menten model of GraphPad Prism 9, provides the parameters kinact (maximum potential rate of inactivation) and KI (concentration of MN551 at which kobs = kinact/2) (Supplementary Fig. 9D, E).
The observed first-order rate constant, kobs is related to KI and kinact by the equation:2 kobs=kinactI/KI+I
At [I]«[KI] the above equation is converted to3 […]
The slope from the plot of kobs against concentration of MN551 gives us the covalent efficiency parameter kinact/KI (Supp Fig. 9F)[30],[33].

[1] = MN551 12.599 nM, Cycle 11 (50 min)
[2] = MN551 12.599 nM, Cycle 18 (85 min)
[3] = MN551 17.6386 nM, Cycle 11 (50 min)
[4] = MN551 17.6386 nM, Cycle 12 (55 min)
[5] = MN551 17.6386 nM, Cycle 18 (85 min)
[6] = MN551 24.694 nM, Cycle 11 (50 min)
[7] = MN551 24.694 nM, Cycle 12 (55 min)
[8] = MN551 24.694 nM, Cycle 18 (85 min)
[9] = MN551 34.5716 nM, Cycle 11 (50 min)
[10] = MN551 34.5716 nM, Cycle 12 (55 min)
[11] = MN551 34.5716 nM, Cycle 18 (85 min)

T1 sequence (O14508 32-198): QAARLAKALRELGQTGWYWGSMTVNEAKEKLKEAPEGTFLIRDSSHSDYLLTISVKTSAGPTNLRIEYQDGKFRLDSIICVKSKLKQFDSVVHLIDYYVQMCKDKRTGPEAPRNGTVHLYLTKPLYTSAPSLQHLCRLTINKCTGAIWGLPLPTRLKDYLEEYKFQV
T1 sequence (Q15370 1-104 partner limits assumed): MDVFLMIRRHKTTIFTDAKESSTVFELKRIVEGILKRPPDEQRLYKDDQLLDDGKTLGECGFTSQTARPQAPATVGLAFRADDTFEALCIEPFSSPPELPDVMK
T1 sequence (Q15369 17-112 partner limits assumed): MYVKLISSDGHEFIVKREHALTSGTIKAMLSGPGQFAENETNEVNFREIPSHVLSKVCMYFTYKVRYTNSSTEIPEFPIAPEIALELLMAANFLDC

How did the kinact (FP competition assay to evaluate MN551 covalent efficiency, experiment n=1, from Michaelis-Menten fit (Vmax), read-out: Kinact (converted)) turn out when O=C(CCl)Nc1cccc(CNC(=O)[C@H](Cc2ccc(OP(=O)(O)O)cc2)NC(=O)Cc2ccc(F)cc2)c1 [MN551] was run?
The kinact was 0.0145 min⁻¹.

What about the kinact (FP competition assay to evaluate MN551 covalent efficiency, experiment n=1, read-out: Kinact (converted)) of the same compound?
The kinact was 0.0145 min⁻¹.

What about the kinact/KI (FP competition assay to evaluate MN551 covalent efficiency, experiment n=1, slope of linear fit, MN551 below Ki titration) of the same compound?
The kinact/KI was 55.8 M⁻¹ s⁻¹.

And the kinact/KI (FP competition assay to evaluate MN551 covalent efficiency, experiment n=1, slope of linear fit)?
Its kinact/KI is 55.8 M⁻¹ s⁻¹.

What about the kinact (FP competition assay, replicate n=3, read-out: Kinact (min-1) (converted)) of the same compound?
The kinact was 0.0174 min⁻¹.

What about the kinact (FP competition assay, replicate n=3, read-out: Kinact (s-1)) of the same compound?
The kinact was 0.0174 min⁻¹.

And the kinact/KI (FP competition assay, replicate n=3)?
The kinact/KI was 61.5 M⁻¹ s⁻¹.

What about the “Anisotropy based on Raw Data (485)” value (MN551 12.207 nM) of the same compound?
Its value is 281.1 and 280.8 and 279.5.

What about the “Fb, fraction bound” value (MN551 12.207 nM) of the same compound?
Its value is 0.9935 and 1.0185 and 1.023.

What about the Anisotropy (MN551 12.207 nM, Cycle 11 (50 min)) of the same compound?
Its Anisotropy is 276.9 and 277 and 280.3.

What about the “Anisotropy data 485,520,520” value (MN551 12.207 nM, Cycle 18 (85 min)) of the same compound?
Its value is 272.5 and 273.4 and 274.8.

And the “Anisotropy based on Raw Data (485)” value (MN551 12.599 nM)?
The value was 275 and 272 and 270.

And the “Normalised anisotropy (0 nM MN551 = 1, free probe = 0)” value (MN551 12.599 nM, Cycle 13 (60 min))?
Its value is 0.9972 and 0.9668 and 1.008.

What about the “Normalised anisotropy (0 nM MN551 = 1, free probe = 0)” value (MN551 12.599 nM, Cycle 14 (65 min)) of the same compound?
Its value is 1.04 and 1.018 and 1.012.

What about the “Fb, fraction bound” value (MN551 12.599 nM) of the same compound?
The value was 1.02 and 0.9926 and 1.014.

And the Anisotropy [1]?
The Anisotropy was 278.4 and 278.3 and 275.7.

What about the Fb [1] of the same compound?
Its Fb is 1.027 and 1.013 and 1.017.

And the Fb (MN551 12.599 nM, Cycle 12 (55 min))?
Its Fb is 1.006 and 1.0163 and 0.9962.

What about the “Anisotropy data 485,520,520” value [2] of the same compound?
The value was 273.9 and 272.6 and 271.8.

What about the “Anisotropy normalised (0 nM MN551 = 1, free probe = 0)” value [2] of the same compound?
Its value is 1.0213 and 1.004 and 1.0408.

What about the “Anisotropy normalised (0 nM MN551 = 1, free probe = 0)” value (MN551 12.599 nM, Cycle 19 (90 min)) of the same compound?
The value was 1.03 and 1.012 and 1.015.

What about the “Anisotropy normalised (0 nM MN551 = 1, free probe = 0)” value (MN551 12.599 nM, Cycle 20 (95 min)) of the same compound?
Its value is 0.9942 (2×) and 0.9893.

What about the “Anisotropy based on Raw Data (485)” value (MN551 17.6386 nM) of the same compound?
Its value is 276.7 and 273.3 and 271.3.

What about the “Normalised anisotropy (0 nM MN551 = 1, free probe = 0)” value (MN551 17.6386 nM, Cycle 13 (60 min)) of the same compound?
Its value is 1.033 and 0.9926 and 1.023.

And the “Normalised anisotropy (0 nM MN551 = 1, free probe = 0)” value (MN551 17.6386 nM, Cycle 14 (65 min))?
Its value is 1.058 and 1.0113 and 1.0096.

And the “Fb, fraction bound” value (MN551 17.6386 nM)?
Its value is 1.066 and 1.015 and 1.047.

And the Anisotropy [3]?
Its Anisotropy is 282.4 and 277.6 and 277.2.

What about the Fb [3] of the same compound?
The Fb was 1.065 and 1.007 and 1.031.

What about the Anisotropy [4] of the same compound?
The Anisotropy was 282.3 and 277.4 and 277.1.

And the Fb [4]?
Its Fb is 1.042 and 1.027 and 1.02.

What about the “Anisotropy data 485,520,520” value [5] of the same compound?
Its value is 277.5 and 272.7 and 272.2.

What about the “Anisotropy normalised (0 nM MN551 = 1, free probe = 0)” value [5] of the same compound?
Its value is 1.056 and 1.005 and 1.045.

And the “Anisotropy normalised (0 nM MN551 = 1, free probe = 0)” value (MN551 17.6386 nM, Cycle 19 (90 min))?
Its value is 1.075 and 1.012 and 1.027.

And the “Anisotropy normalised (0 nM MN551 = 1, free probe = 0)” value (MN551 17.6386 nM, Cycle 20 (95 min))?
Its value is 1.027 and 0.9971 and 1.019.

And the “Anisotropy based on Raw Data (485)” value (MN551 24.4141 nM)?
The value was 282.9 and 279.8 and 282.

And the “Fb, fraction bound” value (MN551 24.4141 nM)?
The value was 1.016 and 1.08 and 1.041.

And the Anisotropy (MN551 24.4141 nM, Cycle 11 (50 min))?
The Anisotropy was 280.9 and 281.2 and 279.7.

What about the Anisotropy (MN551 24.4141 nM, Cycle 12 (55 min)) of the same compound?
The Anisotropy was 280.

What about the “Anisotropy data 485,520,520” value (MN551 24.4141 nM, Cycle 18 (85 min)) of the same compound?
The value was 276.9 and 277.7 and 276.3.

What about the “Anisotropy based on Raw Data (485)” value (MN551 24.694 nM) of the same compound?
Its value is 274.8 and 272.6 and 276.9.

And the “Normalised anisotropy (0 nM MN551 = 1, free probe = 0)” value (MN551 24.694 nM, Cycle 13 (60 min))?
The value was 1.02 and 0.977 and 1.0251.

What about the “Normalised anisotropy (0 nM MN551 = 1, free probe = 0)” value (MN551 24.694 nM, Cycle 14 (65 min)) of the same compound?
The value was 1.023 and 1.014 and 1.022.

What about the “Fb, fraction bound” value (MN551 24.694 nM) of the same compound?
The value was 1.025 and 1.008 and 1.0546.

And the Anisotropy [6]?
Its Anisotropy is 280.6 and 275.8 and 277.4.

What about the Fb [6] of the same compound?
The Fb was 1.048 and 0.9896 and 1.033.

What about the Anisotropy [7] of the same compound?
The Anisotropy was 282.7 and 278.3 and 277.5.

And the Fb [7]?
The Fb was 1.046 and 1.035 and 1.024.

And the “Anisotropy data 485,520,520” value [8]?
The value was 274.3 and 273.5 and 273.4.

What about the “Anisotropy normalised (0 nM MN551 = 1, free probe = 0)” value [8] of the same compound?
The value was 1.025 and 1.012 and 1.057.

And the “Anisotropy normalised (0 nM MN551 = 1, free probe = 0)” value (MN551 24.694 nM, Cycle 19 (90 min))?
The value was 1.038 and 1.023 and 1.016.

What about the “Anisotropy normalised (0 nM MN551 = 1, free probe = 0)” value (MN551 24.694 nM, Cycle 20 (95 min)) of the same compound?
Its value is 1.035 and 1.007 and 1.013.

And the “Anisotropy based on Raw Data (485)” value (MN551 34.5716 nM)?
Its value is 274.4 and 276.1 and 281.6.

And the “Normalised anisotropy (0 nM MN551 = 1, free probe = 0)” value (MN551 34.5716 nM, Cycle 13 (60 min))?
The value was 1.034 and 1.023 and 1.046.

And the “Normalised anisotropy (0 nM MN551 = 1, free probe = 0)” value (MN551 34.5716 nM, Cycle 14 (65 min))?
Its value is 1.052 and 1.027 and 1.028.

And the “Fb, fraction bound” value (MN551 34.5716 nM)?
The value was 1.054 and 1.044 and 1.086.

What about the Anisotropy [9] of the same compound?
Its Anisotropy is 283.1 and 279.4 and 279.3.

And the Fb [9]?
Its Fb is 1.072 and 1.024 and 1.051.

And the Anisotropy [10]?
Its Anisotropy is 281.9 and 279 and 279.2.

What about the Fb [10] of the same compound?
The Fb was 1.038 and 1.042 and 1.04.

And the “Anisotropy data 485,520,520” value [11]?
Its value is 278.1 and 277 and 275.1.

What about the “Anisotropy normalised (0 nM MN551 = 1, free probe = 0)” value [11] of the same compound?
The value was 1.062 and 1.046 and 1.074.

And the “Anisotropy normalised (0 nM MN551 = 1, free probe = 0)” value (MN551 34.5716 nM, Cycle 19 (90 min))?
The value was 1.076 and 1.071 and 1.037.

What about the “Anisotropy normalised (0 nM MN551 = 1, free probe = 0)” value (MN551 34.5716 nM, Cycle 20 (95 min)) of the same compound?
The value was 1.051 and 1.0281 and 1.04.

What about the “Anisotropy based on Raw Data (485)” value (MN551 48.4003 nM) of the same compound?
Its value is 280.1 and 278.6 (2×).

What about the “Normalised anisotropy (0 nM MN551 = 1, free probe = 0)” value (MN551 48.4003 nM, Cycle 13 (60 min)) of the same compound?
Its value is 1.018 and 0.9871 and 0.9961.

What about the “Normalised anisotropy (0 nM MN551 = 1, free probe = 0)” value (MN551 48.4003 nM, Cycle 14 (65 min)) of the same compound?
The value was 1.029 and 1 and 1.015.

Source: article PMC10564737, “Structure-based design of a phosphotyrosine-masked covalent ligand targeting the E3 ligase SOCS2” (Nature Communications, 2023)
